Data reported in PubChem BioAssay AID1963827 (Molecular Pharmacology Branch, DTP, NCI, 2024).

System: 994946-033-R-J1-PDC complex spheroid viability
Assay: Anticancer human tumor 994946-033-R-J1-PDC patient-derived melanoma cell line growth inhibition [POLQ]
Conditions: for IC50: curve of first compound; for viability, T/C: stronger effect = lower value
Outline: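 Patient-derived tumour cells were co-cultured with HUVEC and mesenchymal stem cells as multicellular spheroids at 37 °C. They were treated with POLQ inhibitors (novobiocin, ART-558, RP6685) alone or combined with other agents. Top concentrations were at or near clinical Cmax (otherwise 10 microM; SN-38 at 1 microM), decreasing in half-log steps.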

[1] = second compound 0.0316 µM, first compound 0.00316 µM
[2] = second compound 0.0316 µM, first compound 0.01 µM
[3] = second compound 0.0316 µM, first compound 0.0316 µM
[4] = second compound 0.0316 µM, first compound 0.1 µM
[5] = second compound 0.0316 µM, first compound 0.316 µM
[6] = second compound 0.0316 µM, first compound 1 µM
[7] = second compound 0.1 µM, first compound 0.00316 µM
[8] = second compound 0.1 µM, first compound 0.01 µM
[9] = second compound 0.1 µM, first compound 0.0316 µM
[10] = second compound 0.1 µM, first compound 0.1 µM
[11] = second compound 0.1 µM, first compound 0.316 µM
[12] = second compound 0.1 µM, first compound 1 µM
[13] = second compound 0.316 µM, first compound 0.00316 µM
[14] = second compound 0.316 µM, first compound 0.01 µM
[15] = second compound 0.316 µM, first compound 0.0316 µM
[16] = second compound 0.316 µM, first compound 0.1 µM
[17] = second compound 0.316 µM, first compound 0.316 µM
[18] = second compound 0.316 µM, first compound 1 µM
[19] = second compound 1 µM, first compound 0.00316 µM
[20] = second compound 1 µM, first compound 0.01 µM
[21] = second compound 1 µM, first compound 0.0316 µM
[22] = second compound 1 µM, first compound 0.1 µM
[23] = second compound 1 µM, first compound 0.316 µM
[24] = second compound 1 µM, first compound 1 µM
[25] = second compound 3.16 µM, first compound 0.00316 µM
[26] = second compound 3.16 µM, first compound 0.01 µM
[27] = second compound 3.16 µM, first compound 0.0316 µM
[28] = second compound 3.16 µM, first compound 0.1 µM
[29] = second compound 3.16 µM, first compound 0.316 µM
[30] = second compound 3.16 µM, first compound 1 µM
[31] = second compound 10 µM, first compound 0.00316 µM
[32] = second compound 10 µM, first compound 0.01 µM
[33] = second compound 10 µM, first compound 0.0316 µM
[34] = second compound 10 µM, first compound 0.1 µM
[35] = second compound 10 µM, first compound 0.316 µM
[36] = second compound 10 µM, first compound 1 µM
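Further: spheroids exposed to drugs for 7 days.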
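Wherever viability, T/C is given: 100% = DMSO vehicle treated spheroids.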

Q: What does the source list for `COc1cccc(OCCCN)c1-c1cc(Nc2cnc(C#N)cn2)n[nH]1` + Nc1ccc(C#CCN(C(=O)Cc2ncc(C(F)(F)F)cc2C(F)(F)F)c2ccc(F)cc2)nn1?
A: IC50 (second compound 0.0316 µM): 25 nM; IC50 (second compound 0.1 µM): 23.5 nM; IC50 (second compound 0.316 µM): 17.1 nM; IC50 (second compound 1 µM): 16.1 nM; IC50 (second compound 3.16 µM): 23.7 nM; IC50 (second compound 10 µM): 19.7 nM; viability, T/C [1]: 71%; viability, T/C [2]: 66.9%; viability, T/C [3]: 34.4%; viability, T/C [4]: 49%; viability, T/C [5]: 14.3%; viability, T/C [6]: 17.4%; viability, T/C [7]: 86.9%; viability, T/C [8]: 69.2%; viability, T/C [9]: 38.4%; viability, T/C [10]: 39.4%; viability, T/C [11]: 25%; viability, T/C [12]: 24.3%; viability, T/C [13]: 92.2%; viability, T/C [14]: 66.1%; viability, T/C [15]: 31.9%; viability, T/C [16]: 19.9%; viability, T/C [17]: 25.6%; viability, T/C [18]: 15.7%; viability, T/C [19]: 80.1%; viability, T/C [20]: 60.7%; viability, T/C [21]: 34.6%; viability, T/C [22]: 24.4%; viability, T/C [23]: 17.6%; viability, T/C [24]: 19%; viability, T/C [25]: 94.6%; viability, T/C [26]: 66.6%; viability, T/C [27]: 47.5%; viability, T/C [28]: 24.2%; viability, T/C [29]: 28.7%; viability, T/C [30]: 19.9%; viability, T/C [31]: 100%; viability, T/C [32]: 64.5%; viability, T/C [33]: 30.5%; viability, T/C [34]: 44.3%; viability, T/C [35]: 30.3%; viability, T/C [36]: 19.1%

Q: What does the source list for `Cn1ncnc1[C@H]1c2n[nH]c(=O)c3cc(F)cc(c23)N[C@@H]1c1ccc(F)cc1` + Nc1ccc(C#CCN(C(=O)Cc2ncc(C(F)(F)F)cc2C(F)(F)F)c2ccc(F)cc2)nn1?
A: IC50 (second compound 0.0316 µM): > 100 nM; IC50 (second compound 0.1 µM): > 100 nM; IC50 (second compound 0.316 µM): > 100 nM; IC50 (second compound 1 µM): > 100 nM; IC50 (second compound 3.16 µM): > 100 nM; IC50 (second compound 10 µM): > 100 nM; viability, T/C (second compound 0.0316 µM, first compound 0.000316 µM): 98.5%; viability, T/C (second compound 0.0316 µM, first compound 0.001 µM): 99.3%; viability, T/C [1]: 79.2%; viability, T/C [2]: 91.6%; viability, T/C [3]: 86.8%; viability, T/C [4]: 54.3%; viability, T/C (second compound 0.1 µM, first compound 0.000316 µM): 101%; viability, T/C (second compound 0.1 µM, first compound 0.001 µM): 71.5%; viability, T/C [7]: 69%; viability, T/C [8]: 93.8%; viability, T/C [9]: 59.2%; viability, T/C [10]: 65.9%; viability, T/C (second compound 0.316 µM, first compound 0.000316 µM): 110%; viability, T/C (second compound 0.316 µM, first compound 0.001 µM): 48.7%; viability, T/C [13]: 92.3%; viability, T/C [14]: 70.8%; viability, T/C [15]: 77.3%; viability, T/C [16]: 51%; viability, T/C (second compound 1 µM, first compound 0.000316 µM): 65.3%; viability, T/C (second compound 1 µM, first compound 0.001 µM): 93%; viability, T/C [19]: 71.5%; viability, T/C [20]: 72.4%; viability, T/C [21]: 59.2%; viability, T/C [22]: 55%; viability, T/C (second compound 3.16 µM, first compound 0.000316 µM): 116%; viability, T/C (second compound 3.16 µM, first compound 0.001 µM): 69.4%; viability, T/C [25]: 74.5%; viability, T/C [26]: 62%; viability, T/C [27]: 68.6%; viability, T/C [28]: 79.7%; viability, T/C (second compound 10 µM, first compound 0.000316 µM): 77.7%; viability, T/C (second compound 10 µM, first compound 0.001 µM): 91%; viability, T/C [31]: 87.3%; viability, T/C [32]: 87%; viability, T/C [33]: 67.7%; viability, T/C [34]: 57.2%

Q: What does the source list for `O=C(c1cc(Cc2n[nH]c(=O)c3ccccc23)ccc1F)N1CCN(C(=O)C2CC2)CC1` + Nc1ccc(C#CCN(C(=O)Cc2ncc(C(F)(F)F)cc2C(F)(F)F)c2ccc(F)cc2)nn1?
A: IC50 (second compound 0.0316 µM): 6710 nM; IC50 (second compound 0.1 µM): 6450 nM; IC50 (second compound 0.316 µM): 4090 nM; IC50 (second compound 1 µM): 5260 nM; IC50 (second compound 3.16 µM): 3820 nM; IC50 (second compound 10 µM): 7000 nM; viability, T/C [3]: 116%; viability, T/C [4]: 88.8%; viability, T/C [5]: 101%; viability, T/C [6]: 72.6%; viability, T/C (second compound 0.0316 µM, first compound 3.16 µM): 76.6%; viability, T/C (second compound 0.0316 µM, first compound 10 µM): 37.3%; viability, T/C [9]: 61.7%; viability, T/C [10]: 113%; viability, T/C [11]: 70.5%; viability, T/C [12]: 78.6%; viability, T/C (second compound 0.1 µM, first compound 3.16 µM): 83.5%; viability, T/C (second compound 0.1 µM, first compound 10 µM): 30.6%; viability, T/C [15]: 101%; viability, T/C [16]: 84.9%; viability, T/C [17]: 84%; viability, T/C [18]: 55.8%; viability, T/C (second compound 0.316 µM, first compound 3.16 µM): 70.8%; viability, T/C (second compound 0.316 µM, first compound 10 µM): 29.6%; viability, T/C [21]: 78.9%; viability, T/C [22]: 111%; viability, T/C [23]: 66%; viability, T/C [24]: 92.8%; viability, T/C (second compound 1 µM, first compound 3.16 µM): 55.9%; viability, T/C (second compound 1 µM, first compound 10 µM): 42.6%; viability, T/C [27]: 94.8%; viability, T/C [28]: 80.3%; viability, T/C [29]: 77.8%; viability, T/C [30]: 58.8%; viability, T/C (second compound 3.16 µM, first compound 3.16 µM): 57.9%; viability, T/C (second compound 3.16 µM, first compound 10 µM): 37.1%; viability, T/C [33]: 66.4%; viability, T/C [34]: 87.3%; viability, T/C [35]: 70.3%; viability, T/C [36]: 92.3%; viability, T/C (second compound 10 µM, first compound 3.16 µM): 80.1%; viability, T/C (second compound 10 µM, first compound 10 µM): 36.8%
